Measurements: patent US11014896B2, “TRPA1 and TRPV4 inhibitors and methods of using the same for organ-specific inflammation and itch” (Duke University, priority 2014, dated 2021)
Entries after “also recorded” stand apart in the source; their conditions may differ.

Tests used:
human TRPV1 = target: T1, human TRPV1 (Homo sapiens, UniProt Q8NER1); experiment: Ca2+ signal in N2a cells transfected with human TRPV1; type: cell-based; conditions: stimulation with 5 μM capsaicin
T1 construct: expressed in transfected cells; host or cells: N2a cells
Method: (§1) Compounds were tested for their effect on TRPV1, TRPV2, and TRPV3. Methods were similar to those described in Example 15. Briefly, N2a cells were transfected with human TRPV1, TRPV2, or TRPV3. eGFP-transfection was used as control. For specific stimulation of TRPV1, 5 μM capsaicin was used. For stimulation of TRPV2, hypotonicity (260 mosmol/L) was used, based on previous reports of TRPV2 being osmotically responsive. N2a cells were not responsive to hypotonicity, and neither were control-transfected cells. For TRPV3-expressing cells, camphor (20% of a commercially available stock solution) was used. […] Stimulation and control protocols were applied as for TRPA1-expressing N2a cells as detailed above in Example 15.

human TRPV2 = target: T2, human TRPV2 (Homo sapiens, UniProt Q9Y5S1); experiment: Ca2+ signal in N2a cells transfected with human TRPV2; type: cell-based; conditions: stimulation with hypotonicity (260 mosmol/L)
T2 construct: expressed in transfected cells; host or cells: N2a cells
T2 sequence (Q9Y5S1 1-764): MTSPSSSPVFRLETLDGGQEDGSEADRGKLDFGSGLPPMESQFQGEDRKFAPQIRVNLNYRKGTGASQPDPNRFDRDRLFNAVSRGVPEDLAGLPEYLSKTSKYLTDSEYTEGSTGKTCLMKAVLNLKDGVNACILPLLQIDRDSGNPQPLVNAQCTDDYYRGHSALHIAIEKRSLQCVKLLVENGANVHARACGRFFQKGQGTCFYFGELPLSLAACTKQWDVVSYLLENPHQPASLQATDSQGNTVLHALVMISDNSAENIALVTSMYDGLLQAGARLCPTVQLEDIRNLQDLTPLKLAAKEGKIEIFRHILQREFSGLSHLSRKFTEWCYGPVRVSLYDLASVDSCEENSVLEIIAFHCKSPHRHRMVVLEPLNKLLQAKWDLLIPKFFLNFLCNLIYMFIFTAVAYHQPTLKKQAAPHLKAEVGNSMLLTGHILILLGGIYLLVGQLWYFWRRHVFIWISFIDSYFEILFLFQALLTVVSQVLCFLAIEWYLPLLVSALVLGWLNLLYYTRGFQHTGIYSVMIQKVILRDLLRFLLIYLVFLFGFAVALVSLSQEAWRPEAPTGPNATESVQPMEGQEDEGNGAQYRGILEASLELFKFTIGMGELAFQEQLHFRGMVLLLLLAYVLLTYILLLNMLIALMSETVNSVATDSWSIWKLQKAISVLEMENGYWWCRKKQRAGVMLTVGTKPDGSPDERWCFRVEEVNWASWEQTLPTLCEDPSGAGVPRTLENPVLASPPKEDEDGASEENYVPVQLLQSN
Method: as §1

ET1 [1] = experiment: ET1 secretion by non-stimulated 1° MK (ELISA); type: cell-based, mouse
ET1 [2] = experiment: ET1 expression by UVB-exposed 1° MK (immunocytochemistry); type: cell-based, mouse; conditions: cells preincubated with inhibitor
Method: 1° MK were exposed to UVB using the UV optical system (295 nm LED). 24 hours later the cells were fixed and fluorescently immunolabeled for ET1. Digital images were captured and subjected to morphometry.
Mouse keratinocytes were cultured on collagen coated quartz coverslips and then stimulated from the bottom using the previously mentioned UV optical system using the 295 nm LED. 24 hours later the cells were fixed in 4% formaldehyde in PBS for 20 minutes, permeabilized with 0.1% Triton X-100 in PBS for 10 minutes, washed, then blocked in 10% normal goat serum in PBS for 45 minutes. Coverslips were incubated overnight with primary antibody mouse anti-ET1 (1:200; Abcam), washed three times in PBS and incubated with secondary antibody for 2 hours at 25° C. Coverslips were washed three times in PBS, once with double-distilled H2O. Digital images were captured using a 40× immersion lens on the BX61 Olympus upright microscope. Morphometric analysis was conducted using ImageJ freeware with tailored regions-of-interest.

IL-1β = IL-1β secretion by UVB-exposed 1° MK (ELISA); type: cell-based, mouse; conditions: 5 μM GSK205
Method: Before UV irradiation, culture media was replaced with PBS. The cells were then irradiated at a dose of 50 mJ/cm^2 with UVB. 24 hours later, supernatants were assayed using IL-1β ELISA (R&D Systems, Minneapolis, Minn.).

CXCL5 = experiment: Keratinocyte CXCL5 expression in UVB-exposed footpad after topical treatment; type: in vivo, mouse; conditions: 5 mM GSK205 topical
Method: GSK205 topical treatment: A viscous solution of 68% EtOH/5% glycerol plus 1 mM or 5 mM GSK205 (none for control) was applied to hindpaws by rubbing in 20 μL, applied at time-points 1 hour and again 10 min before UV exposure.
Routine procedures were followed as described previously (Chen et al., 2009). Mice were perfused transcardially with 30 mL PBS, followed by 30 mL 4% paraformaldehyde. Tissues, including the L5 DRGs (bilateral), and footpad preparations, were dissected and post-fixed in 4% paraformaldehyde. Tissue blocks were further cryoprotected in 30% sucrose in PBS for 24-48 hours. For mouse TRPV4, keratin-specific antibodies, phospho-ERK, IL-6, IL-1β, CXCL5 and caspase-1, tissue was prepared as frozen blocks and subsequently sectioned on a cryostat. For CD68, CD15 (neutrophil elastase) and CD3, mouse skin was prepared by 2% PFA perfusion. […]

T1 sequence (Q8NER1 whole entry): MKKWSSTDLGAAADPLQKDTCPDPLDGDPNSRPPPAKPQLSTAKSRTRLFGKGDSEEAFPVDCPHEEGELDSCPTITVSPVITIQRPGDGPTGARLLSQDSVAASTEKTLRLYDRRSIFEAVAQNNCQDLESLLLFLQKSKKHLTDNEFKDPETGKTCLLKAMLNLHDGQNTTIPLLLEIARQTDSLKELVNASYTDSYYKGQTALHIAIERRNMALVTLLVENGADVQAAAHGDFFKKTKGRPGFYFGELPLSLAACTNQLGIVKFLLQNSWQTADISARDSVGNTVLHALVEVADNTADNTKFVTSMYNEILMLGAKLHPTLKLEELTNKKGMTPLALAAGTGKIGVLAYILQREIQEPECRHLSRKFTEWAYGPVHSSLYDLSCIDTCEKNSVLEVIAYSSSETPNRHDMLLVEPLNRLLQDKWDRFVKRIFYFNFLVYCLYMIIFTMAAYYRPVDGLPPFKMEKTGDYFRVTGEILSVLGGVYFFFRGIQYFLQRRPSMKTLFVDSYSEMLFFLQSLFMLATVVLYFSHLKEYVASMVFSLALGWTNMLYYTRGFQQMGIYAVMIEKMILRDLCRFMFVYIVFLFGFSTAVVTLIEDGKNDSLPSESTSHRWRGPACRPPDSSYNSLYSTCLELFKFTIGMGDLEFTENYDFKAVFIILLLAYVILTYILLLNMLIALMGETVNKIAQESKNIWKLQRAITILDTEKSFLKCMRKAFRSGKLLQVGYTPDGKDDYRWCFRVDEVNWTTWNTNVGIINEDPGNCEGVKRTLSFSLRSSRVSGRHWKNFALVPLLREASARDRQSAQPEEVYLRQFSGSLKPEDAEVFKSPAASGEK

Row | Compound | Ca2+ transience on TRPV1 stimulation (human TRPV1) | Ca2+ transience on TRPV2 stimulation (human TRPV2) | ET1 secretion into supernatant (relative ET1 concentration) (ET1 [1]) | ET1 immunoreactivity (ET1 [2]) | UVB-induced increase in IL-1β secretion (IL-1β) | keratinocyte expression of CXCL5 in UVB-exposed footpad (CXCL5)
1 | CN(CCc1ccc(Nc2nc(-c3ccccc3)cs2)cc1)Cc1ccccc1 [Compound 16-8] | not affected | not affected |  |  |  | 
2 | CN(CCc1ccc(Nc2nc(-c3cccnc3)cs2)cc1)Cc1ccccc1 [GSK205] |  |  | significant down-regulation | diminished; also recorded: significant down-regulation | completely eliminated; also recorded: prevention of increase in IL-1β secretion | Comparably significant blocks; also recorded: attenuates keratinocyte expression of CXCL5
